Experimental data taken from US10441562B2, “Aromatic farnesyl compound and application thereof” (INSTITUTE OF MICROBIOLOGY, CHINESE ACADEMY OF SCIENCES, priority 2015, dated 2019).
Marks after values point to notes of the source that are not given here.

Legend:
[1] = tested on: rats fed with high fat diet; test: blood lipid of rats fed with high fat diet; format: in vivo, SD rats; details: 50 mg/kg intragastric, 10 days, serum
Source text: Serum total cholesterol kit (batch number 20131112), low density lipoprotein LDL-C kit (batch number 20140114), high density lipoprotein HDL-C kit (batch number 20140413), triglyceride TG kit (batch number 20131226), superoxide dismutase SOD kit (batch number 20140213) and glutamic-pyruvic transaminase ALT kit (batch number 20131006) are purchased from Nanjing Jiancheng Bioengineering Institute.
Methods: after being acclimatized for 1 week, the 200±20 g healthy male SD rats are randomly divided into 4 groups of 8 animals in each. The control group is fed with normal diet, while the other groups are fed with high-fat diet, which is normal diet with 1% cholesterol, 0.2% pig bile sal, 10% lard and 10% egg yolk powder. After being fed for 3 weeks, 10 mg/ml extract solution of 1 ml (which corresponds to 50 mg/kg) is given to different groups of rats by intragastric administration for 10 days successively, and the control group and model group are given with equal amounts of saline. After the last administration, blood is taken to be centrifuged at 3000 rpm in 4[…], and then detect serum total cholesterol, low density lipoprotein and triglyceride TG

normal mice = test: blood sugar of normal mice; format: in vivo, Kunming species mice; details: 50 mg/kg intragastric, 10 days, fasted 10 hours
Experimental: Blood glucose determination kit (batch number 20140403) is purchased from Nanjing Jiancheng Bioengineering Institute.
Methods: after being acclimatized for 1 week, the 20±2 g Kunming species mice are randomly divided into 3 groups of 12 animals in each. 10 mg/ml extract solution of 0.1 ml (which corresponds to 50 mg/kg) is given to different groups of mice by intragastric administration for 10 days successively, and the control group is given with equal amounts of saline. After the last administration, the mice are fasted for 10 hours and blood is collected from orbit, then detect the blood sugar by blood glucose determination kit.

[2] = body weight of hyperglycemia KK-A^y mice; format: in vivo
Experimental: (§1) Materials: accurately weigh the 2 compounds S13 and S28 discussed in example 2, and then add 0.5% CMC-Na to make the solution of 5 mg/ml used for activity test. KK-A^y mice are purchased from Chinese Academy of Medical Sciences & Peking Union Medical College Institute of Animal Studies. Experiments are carried out after adapting to the environment (T=20-24° C., constant humidity: 50-60%, 12 hours light exposure (8:00-20:00), soundproof, free feeding and drinking) for 1 week. Glucometer is purchased from Roche.
(§2) Methods: 10 male C57 mice of 6-8 weeks of 20-22 g are used as normal control group (1). Detect the fasting glucose of male KK-A^y mice, which are 6-8 weeks with the weight of 28-32 g, and divide them into different groups according to the blood sugar level and body weight: (2) model control group, (3) which is administered by compound S13 with the dose of 1 mg/kg, (4) which is administered by compound S13 with the dose of 5 mg/kg, (5) which is administered by compound S13 with the dose of 10 mg/kg, (6) which is administered by compound S13 with the dose of 20 mg/kg, (7) which is administered by compound S28 with the dose of 1 mg/kg, (8) which is administered by compound S28 with the dose of 5 mg/kg, (9) which is administered by compound S28 with the dose of 10 mg/kg, (10) which is administered by compound S28 with the dose of 20 mg/kg, (11) which is administered by metformin with the dose of 8 g/kg, (12) which is administered by compound S13 with the dose of 2.5 mg/kg and metformin with the dose of 4 g/kg, (13) which is administered by compound S13 with the dose of 5 mg/kg and metformin with the dose of 4 g/kg, (14) which is administered by compound S28 with the dose of 2.5 mg/kg and metformin with the dose of […], (15) which is administered by compound S28 with the dose of 5 mg/kg and metformin with the dose of […]. Each group has 8 mice, and is administrated successively for 3 weeks. Model control group is given with equal amounts of 0.5% CMC-Na.
2) Effects on body weight and blood sugar: the body weight of mice are recorded at the 2th, 5th, 8th, 11th, 14th, 17th, 20th day after administration, and blood is collected from tip of tail to detect the blood sugar level (see table 10).

[3] = tested on: hyperglycemia KK-A^y mice; test: blood lipid and liver function of hyperglycemia KK-A^y mice; format: in vivo; details: 3 weeks
Experimental: as §1, §2
4) After the last administration, the mice are executed under anesthesia, and blood is taken to be centrifuged at 3000 rpm in 4[…]. Serum total cholesterol, low density lipoprotein and triglyceride TG are detected.

Structure (SMILES): CC(C)=CCC/C(C)=C/CCC1=C[C@H](c2cc(O)ccc2O)OC1=O [S13, (R,E)-5-(2,5-dihydroxyphenyl)-3-(4,8-dimethylnona-3,7-dien-1-yl)furan-2(5H)-one]
- ALT [1]: 61.3* U/L
- HDL-C [1]: 0.99 mmol/L
- LDL-C [1]: 0.36** mmol/L
- SOD [1]: 2.04 U/L
- TC [1]: 2.13* mmol/L
- TG [1]: 0.44* mmol/L
- blood sugar (normal mice): 4.21 mmol/L
- effect on body weight (in words) [2]: litter effect on body weight
- Body weight ([2]; 2st day, 1 mg/kg, groups 3, 7): 30.6 g
- Body weight ([2]; 2st day, 5 mg/kg, groups 4, 8): 30.7 g
- Body weight ([2]; 2st day, 10 mg/kg, groups 5, 9): 30.3 g
- Body weight ([2]; 2st day, 20 mg/kg, groups 6, 10): 30.5 g
- Body weight ([2]; 5st day, 1 mg/kg, groups 3, 7): 30.8 g
- Body weight ([2]; 5st day, 5 mg/kg, groups 4, 8): 30.8 g
- Body weight ([2]; 5st day, 10 mg/kg, groups 5, 9): 30.2 g
- Body weight ([2]; 5st day, 20 mg/kg, groups 6, 10): 30.3 g
- Body weight ([2]; 8st day, 1 mg/kg, groups 3, 7): 30.5 g
- Body weight ([2]; 8st day, 5 mg/kg, groups 4, 8): 30.9 g
- Body weight ([2]; 8st day, 10 mg/kg, groups 5, 9): 30.3 g
- Body weight ([2]; 8st day, 20 mg/kg, groups 6, 10): 30.2 g
- Body weight ([2]; 11st day, 1 mg/kg, groups 3, 7): 30.5 g
- Body weight ([2]; 11st day, 5 mg/kg, groups 4, 8): 31.2 g
- Body weight ([2]; 11st day, 10 mg/kg, groups 5, 9): 31.5 g
- Body weight ([2]; 11st day, 20 mg/kg, groups 6, 10): 30.1 g
- Body weight ([2]; 14st day, 1 mg/kg, groups 3, 7): 31.2 g
- Body weight ([2]; 14st day, 5 mg/kg, groups 4, 8): 31.5 g
- Body weight ([2]; 14st day, 10 mg/kg, groups 5, 9): 32.5 g
- Body weight ([2]; 14st day, 20 mg/kg, groups 6, 10): 30.4 g
- Body weight ([2]; 17st day, 1 mg/kg, groups 3, 7): 31.8 g
- Body weight ([2]; 17st day, 5 mg/kg, groups 4, 8): 31.5 g
- Body weight ([2]; 17st day, 10 mg/kg, groups 5, 9): 32.1 g
- Body weight ([2]; 17st day, 20 mg/kg, groups 6, 10): 30 g
- Body weight ([2]; 20st day, 1 mg/kg, groups 3, 7): 32.1 g
- Body weight ([2]; 20st day, 5 mg/kg, groups 4, 8): 31.6 g
- Body weight ([2]; 20st day, 10 mg/kg, groups 5, 9): 32.5 g
- Body weight ([2]; 20st day, 20 mg/kg, groups 6, 10): 30.1 g
- ALT ([3]; 1 mg/kg, groups 3, 7): 72.1** U/L
- AST ([3]; 1 mg/kg, groups 3, 7): 56.2** U/L
- HDL-C ([3]; 1 mg/kg, groups 3, 7): 22.4 mg/dL
- LDL-C ([3]; 1 mg/kg, groups 3, 7): 64* mg/dL
- SOD ([3]; 1 mg/kg, groups 3, 7): 5.01** U/L
- TC ([3]; 1 mg/kg, groups 3, 7): 132** mg/dL
- TG ([3]; 1 mg/kg, groups 3, 7): 328** mg/dL
- ALT ([3]; 5 mg/kg, groups 4, 8): 72.8** U/L
- AST ([3]; 5 mg/kg, groups 4, 8): 63.5** U/L
- HDL-C ([3]; 5 mg/kg, groups 4, 8): 22.4 mg/dL
- LDL-C ([3]; 5 mg/kg, groups 4, 8): 64** mg/dL
- SOD ([3]; 5 mg/kg, groups 4, 8): 4.24* U/L
- TC ([3]; 5 mg/kg, groups 4, 8): 134** mg/dL
- TG ([3]; 5 mg/kg, groups 4, 8): 310** mg/dL
- ALT ([3]; 10 mg/kg, groups 5, 9): 67.1** U/L
- AST ([3]; 10 mg/kg, groups 5, 9): 60.8** U/L
- HDL-C ([3]; 10 mg/kg, groups 5, 9): 22.5 mg/dL
- LDL-C ([3]; 10 mg/kg, groups 5, 9): 64** mg/dL
- SOD ([3]; 10 mg/kg, groups 5, 9): 4.11** U/L
- TC ([3]; 10 mg/kg, groups 5, 9): 131** mg/dL
- TG ([3]; 10 mg/kg, groups 5, 9): 327** mg/dL
- ALT ([3]; 20 mg/kg, groups 6, 10): 61.2** U/L
- AST ([3]; 20 mg/kg, groups 6, 10): 60.5** U/L
- HDL-C ([3]; 20 mg/kg, groups 6, 10): 22.1 mg/dL
- LDL-C ([3]; 20 mg/kg, groups 6, 10): 53** mg/dL
- SOD ([3]; 20 mg/kg, groups 6, 10): 4.52** U/L
- TC ([3]; 20 mg/kg, groups 6, 10): 125** mg/dL
- TG ([3]; 20 mg/kg, groups 6, 10): 310** mg/dL
